Laboratory results reported in patent publication US8722633B2, “Glycoside derivatives and uses thereof” (Novartis AG, priority 2011, dated 2014).

Legend:
[1] = molecular target: T1, human sodium glucose co-transporter 2 (Homo sapiens, UniProt P31639); assay: SGLT-2 assay: sodium-dependent 14C-AMG uptake in CHO-hSGLT2 or HEK-hSGLT2 cells; assay type: cell-based; conditions: n = 1-4, read-out: SGLT2 IC50 nM (n = 1-4)
T1 construct: expressed in transfected cells; host or cells: CHO-K1 (ATCC CCL-61) or HEK293 (ATCC CRL-1573), stably transfected with pZeoSV carrying the hSGLT2 cDNA
T1 sequence (P31639 1-672): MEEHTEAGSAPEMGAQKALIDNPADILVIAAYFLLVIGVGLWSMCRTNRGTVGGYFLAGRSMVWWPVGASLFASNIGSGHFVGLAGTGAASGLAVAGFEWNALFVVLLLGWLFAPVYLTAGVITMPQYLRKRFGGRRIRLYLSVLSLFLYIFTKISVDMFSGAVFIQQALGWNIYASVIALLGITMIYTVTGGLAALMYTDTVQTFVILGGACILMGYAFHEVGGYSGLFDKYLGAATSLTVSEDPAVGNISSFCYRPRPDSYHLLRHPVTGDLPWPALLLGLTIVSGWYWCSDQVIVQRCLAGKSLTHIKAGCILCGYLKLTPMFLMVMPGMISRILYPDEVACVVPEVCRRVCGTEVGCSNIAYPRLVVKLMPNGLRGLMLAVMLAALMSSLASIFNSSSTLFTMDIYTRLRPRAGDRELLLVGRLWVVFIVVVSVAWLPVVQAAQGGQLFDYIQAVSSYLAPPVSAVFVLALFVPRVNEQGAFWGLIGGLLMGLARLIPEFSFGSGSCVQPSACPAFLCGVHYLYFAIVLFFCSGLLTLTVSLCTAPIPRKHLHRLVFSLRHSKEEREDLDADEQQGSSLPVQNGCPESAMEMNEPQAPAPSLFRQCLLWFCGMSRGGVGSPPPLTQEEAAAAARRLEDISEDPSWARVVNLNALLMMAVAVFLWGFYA
Protocol: These cell lines transport ^14C-labelled alpha-methyl-glucopyranoside (^14C-AMG, Amersham) into the interior of the cell in sodium-dependent manner.
(§1) The SGLT-2 assay is carried out as follows: CHO-hSGLT2 cells are cultivated in Ham's F12 Medium (BioWhittaker) with 10% foetal calf serum and 250 μg/mL zeocin (Invitrogen), and HEK293-hSGLT2 cells are cultivated in DMEM medium with 10% foetal calf serum and 250 μg/mL zeocin (Invitrogen). The cells are detached from the culture flasks by washing twice with PBS and subsequently treating with trypsin/EDTA. After the addition of cell culture medium the cells are centrifuged, resuspended in culture medium and counted in a Casy cell counter. Then 40,000 cells per well are seeded into a white, 96-well plate coated with poly-D-lysine and incubated overnight at 37° C., 5% CO2. The cells are washed twice with 250 μl of assay buffer (Hanks Balanced Salt Solution, 137 mM NaCl, 5.4 mM KCl, 2.8 mM CaCl2, 1.2 mM MgSO4 and 10 mM HEPES (pH 7.4), 50 μg/mL of gentamycin). 250 μl of assay buffer and 5 μl of test compound are then added to each well and the plate is incubated for a further 15 minutes in the incubator. 5 μl of 10% DMSO are used as the negative control. The reaction is started by adding 5 μl of 14 C— AMG (0.05 μCi) to each well. After 2 hours' incubation at 37° C., 5% CO2, the cells are washed again with 250 μl of PBS […] and then lysed by the addition of 25 μl of 0.1 N NaOH (5 min. at 37° C.). 200 μl of MicroScint20 (Packard) are added to each well and incubation is continued for a further 20 min at 37° C. After this incubation the radioactivity of the ^14C-AMG absorbed is measured in a Topcount (Packard) using a ^14C scintillation program.

human SGLT1 = molecular target: T2, human SGLT1 (Homo sapiens, UniProt P13866); assay: SGLT1 assay: analogous 14C-AMG uptake test with hSGLT1 cDNA expressed in CHO-K1 or HEK293 cells; assay type: cell-based; conditions: n = 1-4
T2 construct: the cDNA for hSGLTI (Genbank Ace. No. NM000343); expressed in transfected cells; host or cells: CHO-K1 or HEK293 cells expressing the hSGLT1 cDNA
T2 sequence (P13866 1-664): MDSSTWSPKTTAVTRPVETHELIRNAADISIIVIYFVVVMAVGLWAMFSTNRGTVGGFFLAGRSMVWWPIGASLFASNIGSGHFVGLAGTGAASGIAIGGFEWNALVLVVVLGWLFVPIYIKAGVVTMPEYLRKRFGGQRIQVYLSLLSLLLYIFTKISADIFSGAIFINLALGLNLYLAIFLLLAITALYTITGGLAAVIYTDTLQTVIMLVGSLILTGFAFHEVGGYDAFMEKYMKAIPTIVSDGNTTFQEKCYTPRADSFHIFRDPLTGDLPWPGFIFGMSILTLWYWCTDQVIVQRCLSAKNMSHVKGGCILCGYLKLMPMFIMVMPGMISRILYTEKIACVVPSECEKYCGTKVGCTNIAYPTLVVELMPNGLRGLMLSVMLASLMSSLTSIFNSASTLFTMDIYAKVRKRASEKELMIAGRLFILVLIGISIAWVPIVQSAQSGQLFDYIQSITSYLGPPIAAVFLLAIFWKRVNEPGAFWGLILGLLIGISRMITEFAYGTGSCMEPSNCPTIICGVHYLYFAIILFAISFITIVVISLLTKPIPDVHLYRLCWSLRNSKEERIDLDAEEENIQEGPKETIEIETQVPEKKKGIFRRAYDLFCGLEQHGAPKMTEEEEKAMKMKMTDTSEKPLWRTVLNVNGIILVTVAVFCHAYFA
Protocol: as §1
To determine the selectivity with respect to human SGLT1 an analogous test is set up in which the cDNA for hSGLTI (Genbank Ace. No. NM000343) instead of hSGLT2 cDNA is expressed in CHO-K1 or HEK293 cells.

| SMILES | IC50 [1] | IC50 (human SGLT1) |
| --- | --- | --- |
| CSC1O[C@@H](c2ccc(C3CC3)c(Cc3ccc4c(c3)OCCO4)c2)[C@H](O)[C@@H](O)[C@@H]1O (stereo partly drawn) [Example 1, (2S,3R,4R,5S)-2-[4-cyclopropyl-3-(2,3-dihydro-benzo[1,4]dioxin-6-ylmethyl)-phenyl]-6-methylsulfanyl-tetrahydro-pyran-3,4,5-triol] | 0.29 nM | 0.55 nM |
| CCc1ccc([C@@H]2O[C@H](SC)[C@@H](O)[C@H](O)[C@H]2O)cc1Cc1ccc2c(c1)OCCO2 [Example 1-1, (2S,3R,4R,5S,6R)-2-[3-(2,3-Dihydro-benzo[1,4]dioxin-6-ylmethyl)-4-ethyl-phenyl]-6-methylsulfanyl-tetrahydropyran-3,4,5-triol] | 0.36 nM |  |
| CS(=O)(=O)[C@H]1O[C@@H](c2ccc(C3CC3)c(Cc3ccc4c(c3)OCCO4)c2)[C@H](O)[C@@H](O)[C@@H]1O [Example 2, (2S,3R,4R,5S)-2-[4-Cyclopropyl-3-(2,3-dihydro-benzo[1,4]dioxin-6-ylmethyl)-phenyl]-6-methanesulfonyl-tetrahydro-pyran-3,4,5-triol] | 9.2 nM | 97 nM |
| CCc1ccc([C@@H]2O[C@H](S(C)(=O)=O)[C@@H](O)[C@H](O)[C@H]2O)cc1Cc1ccc2c(c1)OCCO2 [Example 2-1, (2S,3R,4R,5S,6R)-2-[3-(2,3-Dihydro-benzo[1,4]dioxin-6-ylmethyl)-4-ethyl-phenyl]-6-methanesulfonyl-tetrahydropyran-3,4,5-triol] | 1.45 nM | 195 nM |
